From patent publication US10000739B2, “Method and culture medium for improving pluripotent stem cell differentiation inducing efficiency” (NATIONAL UNIVERSITY CORPORATION KUMAMOTO UNIVERSITY, priority 2010, dated 2018) come the findings set out here.

Assay [1] relates to human iPS cells. The experiment in a line: Differentiation of human iPS cells into endoderm cells on mmcM15 cells, immunofluorescent staining for Sox17 and Oct3/4. The assay is classed as cell-based. The note with it: staining Day 10, vs control culture medium. The procedure:
(§1) In performing a whole mount immunohistochemistry test, ES cells or iPS cells were placed on Nunc Theranox Colerslips 24-well type (Nunc). Cells were fixed at room temperature for 20 minutes in 4% paraformaldehyde, and washed sufficiently with 0.1% Tween-containing phosphate buffered saline (PBS-T). In PBS containing 1% TritonX-100, the cells were infiltrated at room for 10 minutes, and incubated for 1 hour in a blocking solution (×5 Blocking One, Nacalai Tesque), then, primary antibodies in the blocking solution were added to the sample, and incubated at 4° C. overnight. The sample was washed sufficiently with PBS-T, and mounted with PermaFluor Aqueous Mounting culture medium (IMMUNON). A confocal image was obtained using Leica Spectral Confocal Scanning System, TCS-SP2 (Leica).
(§2) Antibodies used for detection are as described below. Rabbitanti-α-fetoprotein (AFP, Dako), goat anti-albumin (Sigma), rabbit anti-Pdx1 (Chemicon), mouse anti-Oct3/4 (Santa Cruz), goat anti-Sox17 (R&D). As secondary antibodies, Alexa568-labeled goat anti-rabbit antibody and donkey anti-goat antibody, and Alexa488-labeled goat anti-mouse antibody and goat anti-rabbit antibody, donkey anti-goat antibody (Molecular Probes) were used. Cells were counter-stained with DAPI (Roche). The numbers of Sox17 and Oct3/4 positive cells were quantified using ImageXpress (Molecular Devices Corporation).
Differentiation of human iPS cells into endoderm cells was induced using endoderm differentiation culture media deprived of one amino acid for each culture medium. For induction of differentiation into endoderm cells, an endoderm differentiation inducing method using mmcM15 cells was used (see, non-patent document 6).
As the culture medium, the following media were used depending on the culturing period. From initiation of culturing (Day 0) until Day 6 or Day 8 of culturing, PRMI 1640 culture medium (Invitrogen) containing 50 units/ml penicillin and 50 μg/ml streptomycin (GIBCO), 2 mM L-glutamine (GIBCO), 100 μM β-mercaptoethanol (Sigma), non-essential amino acid (GIBCO), 100 ng/ml activin (R&D Systems) and B27 culture medium additive (Invitrogen) added was used as an endoderm differentiation culture medium.
From Day 6 or Day 8 until Day 10, amino acid-deprived culture media obtained by removing one amino acid from PRMI 1640 culture medium containing 50 units/ml penicillin and 50 μg/ml streptomycin, 2 mM L-glutamine, 100 μM β-mercaptoethanol, 100 ng/ml activin and B27 culture medium additive added, or a culture medium not deprived of an amino acid (control culture medium) was used as an endoderm differentiation culture medium.
Specifically, mmcM15 cells were seeded as supporting cells on a gelatin-coated 96-well plate. Human iPS cells were treated with Y27632 (10 μM) from 24 hours before seeding, and peeled using 0.25% trypsin. The peeled human iPS cells were seeded on mmcM15 cells at a cell concentration of 1×10^4 cells/well. The seeded human iPS cells were cultured for 24 hours under 37° C. and 5% CO2 in ES culture medium (ReproStem, ReproCell) containing 10 μM Y27632 and 5 ng/ml bFGF added. After 24 hours, cells were washed once with PBS, then, the culture medium was changed to an endoderm differentiation culture medium (Day 0). Until Day 6 or Day 8 of culturing, the endoderm differentiation culture medium was changed every other day, and human iPS cells were cultured under 37° C. and 5% CO2. On Day 6 or Day 8, the culture medium was changed to an amino acid-deprived culture medium or a control culture medium. Human iPS cells were cultured until Day 10 of culturing using an amino acid-deprived culture medium or a control culture medium. On Day 10, human iPS cells were subjected to immunofluorescent staining, and the proportions of positive cells for an endoderm differentiation marker (Sox17) and an undifferentiation marker (Oct3/4) were quantitatively analyzed. The proportion of the positive cells based on those stained with DAPI was calculated.

Assay [2] deals with human iPS cells. In words: Addition of methionine metabolites to methionine-deprived or methyl donor-deprived culture medium, Oct3/4 and Sox17 positive cells counted. It counts as cell-based. The note with it: for effect of reducing Oct3/4 positive cells owing to methionine deprivation: added to methionine-deprived culture medium (ΔMet) Day 8 to Day 10; for effect of reducing Oct3/4 positive cells: added to methyl donor-deprived culture medium (ΔMD) Day 8 to Day 10. Here is the method: For investigating an influence of a methionine and methyl donor-deprived culture medium on differentiation into endoderm cells, a culture medium was deprived of methionine and methyl donors on Day 8 of differentiation, and cells were cultured until Day 10 and the numbers of Oct3/4 and Sox17 positive cells were evaluated by antibody staining. Specifically, mmcM15 cells were seeded as supporting cells on a gelatin-coated 96-well plate. Human iPS cells were treated with Y27632 (10 μM) from 24 hours before seeding, and peeled using 0.25% trypsin. The peeled human iPS cells were seeded on mmcM15 cells at a cell concentration of 1×10^4 cells/well. The seeded human iPS cells were cultured for 24 hours under 37° C. and 5% CO2 in ES culture medium containing Y27632 and bFGF added. After 24 hours, the culture medium was changed to an endoderm differentiation culture medium (Day 0). The endoderm differentiation culture medium was changed every other day and human iPS cells cultured under 37° C. and 5% CO2 from the day of initiation of culture (Day 0) to Day 8. On Day 8, the culture medium was changed to various culture media. One obtained by removing […]⋅folate⋅vitamin B12⋅betaine⋅choline from the culture medium was used as a methyl donor-deprived culture medium. Human iPS cells were cultured until Day 10 using various culture media, and Oct3/4 and Sox17 positive cells were counted.
It is known that methionine is metabolized to give cysteine (Cys). […] In the figure, δMD denotes a culture medium not containing methionine, folic acid, vitamin B12, betaine and choline as a methyl donor.

In assay [3] the test system is human iPS cells. Here is the method:
as §1, §2
The methionine addition concentration between Day 8 and Day 10 was […], 0.1, 1.0, 5.0, 10.0, 20.0, 50.0, 100, 200 and 500 μM.
On Day 10, the culture medium was changed to a liver differentiation culture medium ([…] containing 10% KSR, 2000 mg/l D-glucose, 50 units/ml penicillin and 50 μg/ml streptomycin, 2 mM L-glutamine, 100 μM β-mercaptoethanol, […] human recombinant HGF and 1 μM dexamethasone (hereinafter, referred to as “2000KSR-DMEM culture medium”)), and cultured under 37° C. and 5% CO2 until Day 20. During Day 10 to Day 20, the culture medium was changed every other day. On Day 20, human iPs cells were subjected to immunofluorescent staining, and the proportions of Oct3/4 positive cells and AFP positive cells were compared for every methionine concentration.
On Day 10, the culture medium was changed to a liver differentiation culture medium (2000KSR-DMEM culture medium), and human iPS cells were cultured under 37° C. and 5% CO2 until Day 30. During Day 10 to Day 30, the culture medium was changed every other day.

Setting [4] is: amino acid-deprived endoderm differentiation culture medium Day 6 to Day 10.
Setting [5] is: amino acid-deprived endoderm differentiation culture medium Day 8 to Day 10.
Where [6] appears, read: methionine 0 μM to 0.1 μM Day 8 to Day 10, Day 20, FIG. 7C.
[7] abbreviates: methionine 1 μM to 20 μM Day 8 to Day 10, Day 20, FIG. 7C.
Setting [8] is: methionine 50 μM or more Day 8 to Day 10, Day 20, FIG. 7C.

Where two headings read alike, the source gives them in different places.

`N[C@@H](Cc1c[nH]c2ccccc12)C(=O)O` [Trp, tryptophan]: the “Oct3/4 positive cell ratio” value is given as “decreased” in assay [1] (setting [4]) and “remarkably decreased” in assay [1] (setting [5]).
On to `CC[C@H](C)[C@H](N)C(=O)O` [Ile, isoleucine], for which the “Oct3/4 positive cell ratio” value in assay [1] (setting [4]) is recorded as “decreased”; in assay [1] (setting [5]) it was “remarkably decreased”.
With `C[S+](CC[C@H](N)C(=O)O)C[C@H]1O[C@@H](n2cnc3c(N)ncnc32)[C@H](O)[C@@H]1O` (stereo partly shown) [SAM, S-adenosylmethionine], in assay [2], the “effect of reducing Oct3/4 positive cells owing to methionine deprivation” value is reported as “the effect of reducing Oct3/4 positive cells is inhibited” and the “effect of reducing Oct3/4 positive cells” value is “inhibited the effect of reducing Oct3/4 positive cells”.
Consider `NCC(=O)O` [Gly], for which the “Sox17 positive cell ratio” value in assay [1] (setting [5]) was “increased”.
As for `N[C@@H](Cc1ccccc1)C(=O)O` [Phe, phenylalanine], the “Oct3/4 positive cell ratio” value is reported as “decreased” in assay [1] (setting [4]) and “remarkably decreased” in assay [1] (setting [5]).
As to `NCCCC[C@H](N)C(=O)O` [Lys, lysine], the results for the “Oct3/4 positive cell ratio” value in assay [1] (setting [4]) and in assay [1] (setting [5]) were “decreased” and “remarkably decreased”, respectively.
Taken in the same sequence, the figures for `CC(C)[C@H](N)C(=O)O` [Val, valine] were “decreased” and “remarkably decreased”.
With `Nc1ncnc2c1ncn2[C@@H]1O[C@H](CSCC[C@H](N)C(=O)O)[C@@H](O)[C@H]1O` [SAH, S-adenosylhomocystein], in assay [2], the “effect of reducing Oct3/4 positive cells owing to methionine deprivation” value is “the effect of reducing Oct3/4 positive cells is inhibited” and the “effect of reducing Oct3/4 positive cells” value is listed as “had not influence”.
On to `C[C@@H](O)[C@H](N)C(=O)O` [Thr, threonine], for which the figures for the “Oct3/4 positive cell ratio” value in assay [1] (setting [4]) and in assay [1] (setting [5]) were “decreased” and “remarkably decreased”, respectively.
Take `N[C@@H](Cc1c[nH]cn1)C(=O)O` [His, histidine]: the “Oct3/4 positive cell ratio” value was “decreased” in assay [1] (setting [4]) and “remarkably decreased” in assay [1] (setting [5]).
In the case of `N[C@@H](CO)C(=O)O` [Ser], the “Sox17 positive cell ratio” value in assay [1] (setting [5]) is “increased”.
As for `NC(=O)CC[C@H](N)C(=O)O` [Gln], the “Sox17 positive cell ratio” value in assay [1] (setting [5]) is recorded as “increased”.
For the compound `N=C(N)NCCC[C@H](N)C(=O)O` [Arg, arginine], the entries for the “Oct3/4 positive cell ratio” value in assay [1] (setting [4]) and in assay [1] (setting [5]) were “decreased” and “remarkably decreased”, respectively. Further, in assay [1] (setting [5]), the “Sox17 positive cell ratio” value is on record as “increased”.
In the case of `N[C@@H](CS)C(=O)O` [Cys, cysteine], in assay [1] (setting [4]), the “Oct3/4 positive cell ratio” value is “decreased”. Besides, in assay [1] (setting [5]), the “Oct3/4 positive cell ratio” value is listed as “remarkably decreased” and the “Sox17 positive cell ratio” value is reported as “increased”. Moreover, the “effect of reducing Oct3/4 positive cells owing to methionine deprivation” value in assay [2] was “has no influence”.
Consider `N[C@@H](CCS)C(=O)O` [Hcy, homocysteine], for which, in assay [2], the “effect of reducing Oct3/4 positive cells owing to methionine deprivation” value was “the effect of reducing Oct3/4 positive cells is inhibited” and the “effect of reducing Oct3/4 positive cells” value is reported as “had not influence”.
Take `CC(C)C[C@H](N)C(=O)O` [Leu, leucine]: the “Oct3/4 positive cell ratio” value in assay [1] (setting [4]) was “decreased”. In assay [1] (setting [5]), the “Oct3/4 positive cell ratio” value is reported as “remarkably decreased” and the “Sox17 positive cell ratio” value was “increased”.
As for `N[C@@H](Cc1ccc(O)cc1)C(=O)O` [Tyr, tyrosine], the “Oct3/4 positive cell ratio” value in assay [1] (setting [4]) is “decreased”. Also, in assay [1] (setting [5]), the “Oct3/4 positive cell ratio” value is “remarkably decreased” and the “Sox17 positive cell ratio” value was “without change”.
Regarding `CSCC[C@H](N)C(=O)O` [Met, methionine], in assay [1] (setting [4]), the “Oct3/4 positive cell ratio” value is given as “decreased”. Also, in assay [1] (setting [5]), the “Oct3/4 positive cell ratio” value is given as “remarkably decreased” and the “Sox17 positive cell ratio” value is “increased”. In assay [3] (setting [6]), the AFP positive cells result is “present uniformly” and the “amount of remaining Oct3/4 positive cells” value is reported as “small”. Further, in assay [3] (setting [7]), the “number of AFP positive cells” value is “decrease in the number of AFP positive cells is not recognized” and the “number of Oct3/4 positive cells” value is recorded as “increases slightly”. Besides, in assay [3] (setting [8]), the “number of Oct3/4 positive cells” value is listed as “remarkable increase” and the “number of Sox17 positive cells” value is recorded as “remarkable decrease”. Moreover, the “proportion of Oct3/4 positive cells on Day 20” value in assay [3] (methionine added Day 8 to Day 10 at various concentrations up to 500 μM, then liver differentiation culture medium) is reported as “increased depending on the methionine concentration”. In assay [3] (methionine concentrations of 50 μM or more Day 8 to Day 10, Day 20, FIG. 7B), the “proportion of AFP positive cells” value is given as “decreased”. In addition, in assay [2], the “effect of reducing Oct3/4 positive cells owing to methionine deprivation” value was “the effect of reducing Oct3/4 positive cells is inhibited” and the “effect of reducing Oct3/4 positive cells” value is given as “inhibited the effect of reducing Oct3/4 positive cells”.
